The results in this text go back to ChEMBL document CHEMBL5154863, “Design and synthesis of quinolinium-based derivatives targeting FtsZ for antibacterial evaluation and mechanistic study” (Eur J Med Chem, 2022).

The target of assay [1] is T1, Cell division protein FtsZ (Staphylococcus aureus) (UniProt P0A031).
T1 sequence (whole entry): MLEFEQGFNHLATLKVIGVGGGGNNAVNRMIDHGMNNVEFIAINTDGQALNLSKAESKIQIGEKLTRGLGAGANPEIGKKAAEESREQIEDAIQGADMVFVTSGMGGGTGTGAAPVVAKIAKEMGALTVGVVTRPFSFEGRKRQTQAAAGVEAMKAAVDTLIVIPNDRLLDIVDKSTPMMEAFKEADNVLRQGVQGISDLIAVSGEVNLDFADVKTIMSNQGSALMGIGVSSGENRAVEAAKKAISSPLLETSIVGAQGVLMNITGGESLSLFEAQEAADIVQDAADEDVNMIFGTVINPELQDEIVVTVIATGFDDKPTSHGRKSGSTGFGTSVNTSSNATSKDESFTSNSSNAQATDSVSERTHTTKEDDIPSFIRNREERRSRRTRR
In words: Binding affinity to Staphylococcus aureus FtsZ assessed as increase in alpha helix structure at 8 ug/ml incubated for 30 mins by circular dichroism method. The settings on record: dose 8.0 µg/ml. Background: CD spectra are sensitive to the conformation of chiral molecules.

Assay [2] has as its system Staphylococcus aureus. In words: Antibacterial activity against methicillin-resistant Staphylococcus aureus ATCC 33592 assessed as inhibition of bacterial growth incubated for 20 to 24 hrs by broth micro dilution method. Type of assay: functional. The settings on record: time 20-24 hrs.
Assay [3] has as its system Staphylococcus aureus. As to the kind of experiment: Antibacterial activity against methicillin-resistant Staphylococcus aureus ATCC BAA41 assessed as inhibition of bacterial growth incubated for 24 hrs by checker board assay. The class given is functional.
Assay [4] has as its system Bacillus subtilis. In words: Antibacterial activity against Bacillus subtilis CMCC (B) 63501 assessed as inhibition of bacterial growth incubated for 20 to 24 hrs by broth micro dilution method. Type of assay: functional. The settings on record: time 20-24 hrs.
Assay [5] deals with Staphylococcus aureus. In words: Induction of morphological changes in Staphylococcus aureus ATCC 29213 assessed as enlargement of cell size at 0.5 times MIC for 4 hrs by microscopic analysis. The class given is functional, organism-based.
Assay [6] deals with Klebsiella pneumoniae. In words: Antibacterial activity against NDM-1 expressing Klebsiella pneumoniae ATCC BAA 2470 assessed as inhibition of bacterial growth incubated for 20 to 24 hrs by broth micro dilution method. Type of assay: functional. The settings on record: time 20-24 hrs.
In assay [7] the test system is Acinetobacter baumannii. In words: Antibacterial activity against multi-drug resistant Acinetobacter baumannii ATCC 19606 assessed as inhibition of bacterial growth incubated for 20 to 24 hrs by broth micro dilution method. The class given is functional. The settings on record: time 20-24 hrs.
In assay [8] the test system is Enterococcus faecium. As to the kind of experiment: Bactericidal activity against Enterococcus faecium ATCC 700221 assessed as inhibition of bacterial growth incubated for 24 hrs by resazurin dye based microtiter plate assay. The class given is functional.
Assay [9] concerns Staphylococcus aureus. As to the kind of experiment: Bactericidal activity against Staphylococcus aureus ATCC 29213 assessed as inhibition of bacterial growth incubated for 24 hrs by resazurin dye based microtiter plate assay. The class given is functional. In general terms: Alamar Blue is a resazurin reagent that responds to reducing activity.
Assay [10] deals with Pseudomonas aeruginosa. In words: Antibacterial activity against […] Pseudomonas aeruginosa ATCC 27853 assessed as inhibition of bacterial growth incubated for 20 to 24 hrs by broth micro dilution method. Type of assay: functional. The settings on record: time 20-24 hrs.
Assay [11] concerns Enterococcus faecium. In words: Antibacterial activity against Enterococcus faecium ATCC 49624 assessed as inhibition of bacterial growth incubated for 20 to 24 hrs by broth micro dilution method. The class given is functional. The settings on record: time 20-24 hrs.
The target in assay [12] is T2, Cell division protein FtsZ (Staphylococcus aureus, UniProt P0A031).
T2 sequence (P0A031 whole entry): T1 sequence (whole entry)
As to the kind of experiment: Binding affinity to Staphylococcus aureus FtsZ assessed as dissociation constant by isothermal titration calorimetry.

Assay [13] concerns Escherichia coli. In words: Antibacterial activity against NDM-1 expressing Escherichia coli ATCC BAA2469 assessed as inhibition of bacterial growth incubated for 20 to 24 hrs by broth micro dilution method. Type of assay: functional. The settings on record: time 20-24 hrs.
For assay [14], the system named is Staphylococcus epidermidis. In words: Antibacterial activity against Staphylococcus epidermidis ATCC 12228 assessed as inhibition of bacterial growth incubated for 20 to 24 hrs by broth micro dilution method. Type of assay: functional. The settings on record: time 20-24 hrs.
Assay [15] concerns Enterococcus faecium. As to the kind of experiment: Antibacterial activity against vancomycin-resistant Enterococcus faecium clinical isolate assessed as inhibition of bacterial growth incubated for 20 to 24 hrs by broth micro dilution method. Type of assay: functional. The settings on record: time 20-24 hrs.
The subject of assay [16] is Staphylococcus aureus. As to the kind of experiment: Bactericidal activity against Staphylococcus aureus ATCC 43300 assessed as inhibition of bacterial growth incubated for 24 hrs by resazurin dye based microtiter plate assay. Type of assay: functional.
Assay [17] concerns the target T1, Cell division protein FtsZ (Staphylococcus aureus). As to the kind of experiment: Binding affinity to Staphylococcus aureus FtsZ assessed as equilibrium binding constant by isothermal titration calorimetry. (ITC needs no label: the signal is the heat of the interaction.)
In assay [18] the test system is Enterococcus faecium. As to the kind of experiment: Antibacterial activity against vancomycin resistant Enterococcus faecium ATCC 700221 assessed as inhibition of bacterial growth incubated for 20 to 24 hrs by broth micro dilution method. Type of assay: functional. The settings on record: time 20-24 hrs.
Assay [19] deals with Enterococcus faecalis. In words: Antibacterial activity against Enterococcus faecalis ATCC 29212 assessed as inhibition of bacterial growth incubated for 20 to 24 hrs by broth micro dilution method. The settings on record: time 20-24 hrs. The class given is functional.
Assay [20] concerns Staphylococcus aureus. In words: Antibacterial activity against Staphylococcus aureus ATCC 29213 assessed as inhibition of bacterial growth incubated for 20 to 24 hrs by broth micro dilution method. Type of assay: functional. The settings on record: time 20-24 hrs.
The test system of assay [21] is Staphylococcus aureus. As to the kind of experiment: Antibacterial activity against methicillin-resistant Staphylococcus aureus ATCC 43300 assessed as inhibition of bacterial growth incubated for 20 to 24 hrs by broth micro dilution method. The class given is functional. The settings on record: time 20-24 hrs.
Assay [22] can be described thus: Ratio of MBC for bactericidal activity against Enterococcus faecium ATCC 700221 to MIC for antibacterial activity against Enterococcus faecium ATCC 700221. The class given is functional.
Assay [23] concerns Staphylococcus aureus. In words: Antibacterial activity against methicillin-resistant Staphylococcus aureus ATCC BAA41 assessed as fractional inhibitory concentration index incubated for 24 hrs by checker board assay. The class given is functional.
Assay [24] has as its system Escherichia coli. In words: Antibacterial activity against Escherichia coli ATCC 8739 assessed as inhibition of bacterial growth incubated for 20 to 24 hrs by broth micro dilution method. Type of assay: functional. The settings on record: time 20-24 hrs.
Assay [25] is described as follows: Ratio of MBC for bactericidal activity against Staphylococcus aureus ATCC 43300 to MIC for antibacterial activity against Staphylococcus aureus ATCC 43300. The class given is functional.
Assay [26] relates to Staphylococcus aureus. In words: Synergistic antibacterial activity against methicillin-resistant Staphylococcus aureus ATCC BAA41 assessed as inhibition of bacterial growth incubated for 24 hrs in presence of methicillin by checker board assay. Type of assay: functional.
Assay [27] addresses T1, Cell division protein FtsZ (Staphylococcus aureus). As to the kind of experiment: Binding affinity to Staphylococcus aureus FtsZ assessed as decrease in random coil structure at 8 ug/ml incubated for 30 mins by circular dichroism method. The settings on record: dose 8.0 µg/ml.
The test system of assay [28] is Staphylococcus aureus. In words: Antibacterial activity against vancomycin-intermediate Staphylococcus aureus Mu50 assessed as inhibition of bacterial growth incubated for 20 to 24 hrs by broth micro dilution method. The settings on record: time 20-24 hrs. The class given is functional.
In assay [29] the test system is Staphylococcus aureus. As to the kind of experiment: Antibacterial activity against methicillin-resistant Staphylococcus aureus ATCC BAA-1720 assessed as inhibition of bacterial growth incubated for 20 to 24 hrs by broth micro dilution method. The class given is functional. The settings on record: time 20-24 hrs.
The target in assay [30] is T1, Cell division protein FtsZ (Staphylococcus aureus). As to the kind of experiment: Induction of Staphylococcus aureus FtsZ polymerization expressed in Escherichia coli BL21 (DE3) assessed as increase in absorbance at 2 to 8 ug/ml in presence of GTP by microplate reader method. The settings on record: dose 2-8 µg/ml, DDE = dose-dependent effect.
The nature of assay [31]: Ratio of MBC for bactericidal activity against Bacillus subtilis CMCC (B) 63501 to MIC for antibacterial activity against Bacillus subtilis CMCC (B) 63501. The class given is functional.
Assay [32] deals with T1, Cell division protein FtsZ (Staphylococcus aureus). In words: Binding affinity to Staphylococcus aureus FtsZ assessed as decrease in beta turn structure at 8 ug/ml incubated for 30 mins by circular dichroism method. The settings on record: dose 8.0 µg/ml.
Assay [33] relates to Escherichia coli. As to the kind of experiment: Antibacterial activity against Escherichia coli ATCC 25922 assessed as inhibition of bacterial growth incubated for 20 to 24 hrs by broth micro dilution method. Type of assay: functional. The settings on record: time 20-24 hrs.
Assay [34] can be described thus: Ratio of MBC for bactericidal activity against Staphylococcus aureus ATCC 29213 to MIC for antibacterial activity against Staphylococcus aureus ATCC 29213. The class given is functional.
Assay [35] relates to Bacillus subtilis. As to the kind of experiment: Bactericidal activity against Bacillus subtilis CMCC (B) 63501 assessed as inhibition of bacterial growth incubated for 24 hrs by resazurin dye based microtiter plate assay. Type of assay: functional.
For assay [36], the system named is Bacillus subtilis. In words: Induction of morphological changes in Bacillus subtilis CMCC (B) 63501 assessed as elongation of bacterial cell at 0.5 times MIC for 4 hrs (reference value: 3 to 5 um) by microscopic analysis. The class given is functional.
Assay [37] has as its target T1, Cell division protein FtsZ (Staphylococcus aureus). As to the kind of experiment: Binding affinity to Staphylococcus aureus FtsZ assessed as decrease in other structure at 8 ug/ml incubated for 30 mins by circular dichroism method. The settings on record: dose 8.0 µg/ml.

Each structure is given as a SMILES string. Activity calls are given as the source filed them.

As for `CN(C)c1ccc(/C=C/c2cc(N3CCCCC3)c3ccccc3[n+]2C)cc1.[I-]`, the outcome in [1], in assay [5], in assay [27], in assay [32] and in assay [37] was Active. The MIC (usually the smallest concentration in the dilution series that meets the test's criterion for growth inhibition) is 1 µg/mL in assay [2]; 16 µg/mL in assay [3]; 2 µg/mL in [4]; over 64 µg/mL in assay [6]; 64 µg/mL in assay [7]; over 64 µg/mL in [10]. Further, the MIC came to 8 µg/mL in assay [11]; 64 µg/mL in assay [13]; 1 µg/mL in assay [14]; 4 µg/mL in assay [15]; 1 µg/mL in assay [18]; 4 µg/mL in [19]. Further, the MIC in assay [20] was 1 µg/mL; in assay [21], 1 µg/mL; in [24] it was 64 µg/mL; in [26], 2 µg/mL; in [28], 2 µg/mL; in assay [29] it was 2 µg/mL. Also, in [33], the MIC was 16 µg/mL. Further, the MBC – broadly, the lowest tested concentration that kills the bacteria rather than only halting them – in assay [8] was 4 µg/mL; in assay [9] it was 8 µg/mL; in [16], 4 µg/mL; in assay [35] it was 4 µg/mL. Moreover, the Kd (usually the constant that tells how readily two partners part at equilibrium) in [12] is 2490 nM. Further, the Kb in assay [17] was 2.02 10^5/M. In addition, the Ratio in [22] is listed as 4; in [25], 4; in assay [31], 2; in [34], over 4. For the same molecule, the “fractional inhibitory concentration index (FICI)” value in assay [23] came to 0.25. Also, the Activity entry is “Dde” in assay [30] and 30 um in assay [36].

In the case of `CN(C)c1ccc(/C=C/c2cc(N3CCCCC3)[n+](C)c3ccccc23)cc1.[I-]`, the MIC was 8 µg/mL in assay [2]; 4 µg/mL in assay [4]; over 64 µg/mL in assay [6]; over 64 µg/mL in assay [7]; over 64 µg/mL in assay [10]; 8 µg/mL in [11]. The MIC in assay [13] worked out at 64 µg/mL; in [14], 1 µg/mL; in assay [15], 8 µg/mL; in assay [18] it was 2 µg/mL; in [19], 16 µg/mL; in [20] it was 2 µg/mL. Besides, the MIC stood at 4 µg/mL in assay [21]; 32 µg/mL in assay [24]; 4 µg/mL in assay [28]; 4 µg/mL in assay [29]; 16 µg/mL in assay [33].

Regarding `CN(C)c1ccc(/C=C/c2cc(N3CCCC3)c3ccccc3[n+]2C)cc1.[I-]`, the MIC in [2] is 1 µg/mL; in [4] it was 4 µg/mL; in assay [6], over 64 µg/mL; in [7] it was 32 µg/mL; in [10], over 64 µg/mL; in assay [11], 4 µg/mL. The MIC was 64 µg/mL in assay [13]; 1 µg/mL in [14]; 4 µg/mL in [15]; 2 µg/mL in [18]; 2 µg/mL in assay [19]; 1 µg/mL in assay [20]. The MIC was determined as 2 µg/mL in assay [21]; 16 µg/mL in assay [24]; 1 µg/mL in [28]; 8 µg/mL in [29]; 4 µg/mL in assay [33].
